Reference: US4847302A, “Use of certain compounds in livestock food as growth promotants for better feed utilization and improved carcass composition” (Merck & Co., Inc., priority 1988, dated 1989)
Where two headings read alike, the source gives them in different places.

Legend:
[1] = test system: Isolated Chicken Hepatocytes; assay: Inhibition of lipogenesis (14C acetate incorporation) in isolated chicken hepatocytes; type: cell-based; settings: for inhibition at 0.01 µM / inhibition at 0.05 µM / inhibition at 0.25 µM: Gallus gallus, Hepatocyte, 2 h, Test 1, read-out: percent change compared to control, 14C acetate incorporation in fatty acids; for antilipogenic activity relative to clenbuterol / antilipogenic activity relative to isoproterenol: chicken hepatocytes
Procedure: Determination of anti-lipogenic activity in hepatocytes
Hepatocytes were isolated from chicken liver using the procedure for adipocytes and incubated for 2 hours at 37° C. in the presence of ^14 C acetate and test compounds. […] Isoproterenol, at the same concentrations, was used as a positive control. After incubation, 8 ml Doles reagent (isopropanol:hexane:H2 SO4, 40:10:1) was added and incubation vials were shaken at room temperature for 30 minutes. Vial contents were poured into 50 ml screw-cap tubes. Vials were then rinsed with 6 ml hexane which was poured into the appropriate 50 ml tube. Tubes were shaken by hand, 10 ml H2 O was added, and tubes were shaken again. After phase separation, 2 ml of the upper (hexane) phase was removed to scintillation vials. Hexane was evaporated by a gentle air flow and the remaining lipids were resuspended in 10 ml Scinti Verse II. ^14 C was counted in a Packard liquid scintillation counter. Data are reported as CPM of ^14 C acetate incorporated into total lipids.

[2] = test system: Isolated Swine Adipocytes; assay: Stimulation of lipolysis (glycerol production) in isolated swine adipocytes; type: cell-based; settings: Sus scrofa, Adipocyte, 2 h
Procedure: (§1) Fat was collected from freshly killed animals as follows: epididymal and perirenal fat from 150 to 200 g male rates; perirenal fat from 20 to 25 kg whether lambs, and perirenal and omental fat from 35 to 50 kg gilts. Immediately after collection, fat was placed in a siliconized beaker (all glassware was siliconized) containing Krebs-Ringer bicarbonate solution (KRB; pH 7.4) at 37° C. Fat was transferred to a clean beaker and finely chopped with scissors. Chopped fat was then used as such (whole adipose preparation) or treated with collagenase (isolated adipocytes).
(§2) Chopped fat was placed in a shaker containing 70 ml cell dispersion medium (CDM; 5 mM glucose, 0.1% collagenase, 4% bovine serum albumin (BSA), in KRB) and incubated at 37° C. for 1 hour with gentle shaking. Fat was then filtered to remove clumps and washed 4 times with washing medium (WM; 2.5 mM glucose, 1% BSA, in KRB) and 1 time with final suspension medium (FSM; 2.5 mM glucose, 2% essentially fatty acid free BSA, in KRB). Isolated adipocytes were then resuspended in the required amount of FSM (1 ml/flask, 3 flasks/treatment).
(§3) Whole adipose tissue from the rat (0.3 ml) or isolated adipocytes from sheep or swine (1 ml) were placed in plastic scintillation vials containing FSM (1.7 or 1 ml, respectively) and test compounds, and incubated at 37° C. for 2 hours. […] Isoproterenol, at the same concentrations, was used as a positive control. After incubation, media was removed and assayed for glycerol by a fluorometric modification of the method of Wieland (1974. Glycerol UV-method. pp. 1404. In: Bergmeyer (Ed.) Methods of Enzymatic Analysis. Verlag Chemie Weinham, Academic Press, New York).

[3] = test system: Isolated Ovine Adipocytes; assay: Stimulation of lipolysis (glycerol production) in isolated ovine adipocytes; type: cell-based, sheep; settings: for activation at 0.05 µM / activation at 0.01 µM: Ovis aries, Adipocyte, 2 h
Procedure: as §1, §2, §3

Rat Adipose Tissue = assay: Stimulation of lipolysis (glycerol production) in chopped rat adipose tissue; type: cell-based; settings: Rattus norvegicus, 2 h
Procedure: as §1
as §3, with “York). […]” for “York).”

[4] = In vivo testing in rats: growth, feed conversion and carcass composition; design: species or system rat (male Charles River CD); settings: in diet, dose equivalent to 20 ppm clenbuterol (clenbuterol: 10)
Description: Eighty intact, male Charles River CD rats, 75-90 g, were housed and maintained on rat chow and water ad libitum. After four days acclimation ten rats per group were randomized by weight to treatment and pen. Compounds to be tested were premixed and added to ground rat chow using doses equivalent to 20 ppm of clenbuterol on a molecular weight basis. It had previously been determined 10 ppm of clenbuterol was the minimum dose needed to give maximum improvements in gain and feed conversion. Therefore, the results of any compound tested should cause responses similar to clenbuterol if the compound has half or more the activity of clenbuterol.

[5] = Growth, feed conversion and carcass composition of broilers raised in floor pens for 7 weeks; type: in vivo; settings: 7 weeks
Procedure: Compound V (bitolterol) was compared to clenbuterol for effects on growth, feed conversion and carcass composition of broilers raised in floor pens for 7 weeks. […] Bitolterol at the highest dose improved rate of gain 2.6% (P 0.01), feed conversion 3.8% (P 0.05) and carcass protein 4.9% (P 0.10).
Clenbuterol at 0.5 ppm in the diet was administered for 7 weeks to one group and only during the last 4 weeks to another group. […] Clenbuterol given for 7 weeks improved feed conversion 3.5% (P 0.05) and appeared to improve (not significant) rate of gain 0.4%, carcass weight 0.7% and carcass protein 4.0% and to decrease (not significant) carcass fat 7.1%.

[6] = Growth promoting activity / feed utilization in livestock (general statements); type: in vivo
[7] = Toxicity (general statement)
[8] = Test 1, read-out: percent increase compared to control, glycerol production
[9] = Test 1, 0.01 μM, read-out: percent increase compared to control, glycerol production
[10] = read-out: percent increase compared to control, glycerol production, Test 1
[11] = read-out: percent increase compared to control, glycerol production, Test 2

Which results are given for `Cc1ccc(C(=O)Oc2ccc(C(O)CNC(C)(C)C)cc2OC(=O)c2ccc(C)cc2)cc1` (stereo not shown) [Compound V, Bitolterol]?
inhibition at 0.01 µM [1]: 0%; inhibition at 0.05 µM [1]: 34%; inhibition at 0.25 µM [1]: 64.6%; activation at 0.01 µM [2, 8]: 7%; activation at 0.05 µM [2, 8]: 47%; activation at 0.25 µM [2, 8]: 147%; activation at 0.05 µM [3, 8]: 435%; percent increase compared to control, glycerol production ([3]; Test 1, 0.01 μM): inactive; activation at 0.01 µM (Rat Adipose Tissue; [8]): 17%; activation at 0.05 µM (Rat Adipose Tissue; [8]): 33%; activation at 0.25 µM (Rat Adipose Tissue; [8]): 111%; Gain ([4]; Test 1, control 7.3): 7.3 g/day; Feed Intake ([4]; Test 1, control 18.6): 18.7 g/day; Weight ([4]; Test 1, control 191.8): 192.2 g; Carcass Composition % of Change over Control, Fat ([4]; Test 1): -4.3%; Carcass Composition % of Change over Control, Protein ([4]; Test 1): 3.1%; carcass fat (in words) ([5]; 0.5, 1.0 and 2.0 ppm in diet): did not reduce carcass fat; rate of gain, feed conversion and carcass protein, dose response ([5]; 0.5, 1.0 and 2.0 ppm in diet): improved rate of gain, feed conversion and carcass protein in a dose-related manner; improvement of rate of gain ([5]; 2.0 ppm in diet (highest dose), P 0.01): 2.6%; improvement of feed conversion ([5]; 2.0 ppm in diet (highest dose), P 0.05): 3.8%; improvement of carcass protein ([5]; 2.0 ppm in diet (highest dose), P 0.10): 4.9%; responses compared with clenbuterol at 0.5 ppm ([5]; 2.0 ppm in diet): better than those observed with clenbuterol at 0.5 ppm; activity in all species under consideration [6]: high activity in all species under consideration; level of activity ([6]; in vivo): high level of activity; level of toxicity [7]: very low level of toxicity

With `CC(C)(Cc1ccccc1)NCC(O)c1ccc(O)c(NS(C)(=O)=O)c1` (stereo not shown) [I, Zinterol] as the compound, how does the inhibition at 0.01 µM [1] read?
Its inhibition at 0.01 µM is 45.2%.

What about the inhibition at 0.05 µM [1] of the same compound?
The inhibition at 0.05 µM was 61.3%.

What about the inhibition at 0.25 µM [1] of the same compound?
Its inhibition at 0.25 µM is 66%.

And the “antilipogenic activity relative to clenbuterol” value [1]?
Its value is “greater than 125 times”.

And the “antilipogenic activity relative to isoproterenol” value [1]?
The value was “five times”.

What about the activation at 0.01 µM [2, 8] of the same compound?
The activation at 0.01 µM was 87%.

And the activation at 0.05 µM [2, 8]?
Its activation at 0.05 µM is 100%.

What about the activation at 0.25 µM [2, 8] of the same compound?
The activation at 0.25 µM was 53%.

And the activation at 0.01 µM [3, 9]?
The activation at 0.01 µM was 730%.

And the activation at 0.05 µM [3, 8]?
Its activation at 0.05 µM is 960%.

What about the activation at 0.01 µM (Rat Adipose Tissue; [8]) of the same compound?
Its activation at 0.01 µM is 90%.

And the activation at 0.05 µM (Rat Adipose Tissue; [8])?
Its activation at 0.05 µM is 129%.

And the activation at 0.25 µM (Rat Adipose Tissue; [8])?
The activation at 0.25 µM was 281%.

And the Gain ([4]; Test 1, control 7.3)?
The Gain was 7.8 g/day.

What about the “Feed Intake” value ([4]; Test 1, control 18.6) of the same compound?
Its value is 19.2 g/day.

And the Weight ([4]; Test 1, control 191.8)?
Its Weight is 199.1 g.

What about the “Carcass Composition % of Change over Control, Fat” value ([4]; Test 1) of the same compound?
Its value is -10.4%.

What about the “Carcass Composition % of Change over Control, Protein” value ([4]; Test 1) of the same compound?
The value was 7.3%.

And the “activity in all species under consideration” value (“activity in all species” for short) [6]?
The value was “high activity in all species under consideration”.

With `CC(CCc1ccccc1)NCC(O)c1ccc(N)nc1` (stereo not shown) [IV] as the compound, how does the inhibition at 0.01 µM [1] read?
Its inhibition at 0.01 µM is 33.7%.

And the inhibition at 0.05 µM [1]?
Its inhibition at 0.05 µM is 54.3%.

And the inhibition at 0.25 µM [1]?
The inhibition at 0.25 µM was 63.2%.

And the “antilipogenic activity relative to clenbuterol” value [1]?
Its value is “greater than 125 times”.

What about the “antilipogenic activity relative to isoproterenol” value [1] of the same compound?
The value was “five times”.

What about the activation at 0.01 µM [2, 8] of the same compound?
The activation at 0.01 µM was 260%.

And the activation at 0.05 µM [2, 8]?
The activation at 0.05 µM was 333%.

What about the activation at 0.25 µM [2, 8] of the same compound?
The activation at 0.25 µM was 80%.

What about the activation at 0.01 µM [3, 9] of the same compound?
Its activation at 0.01 µM is 820%.

What about the activation at 0.01 µM (Rat Adipose Tissue; [8]) of the same compound?
The activation at 0.01 µM was 114%.

What about the activation at 0.05 µM (Rat Adipose Tissue; [8]) of the same compound?
The activation at 0.05 µM was 219%.

And the activation at 0.25 µM (Rat Adipose Tissue; [8])?
Its activation at 0.25 µM is 334%.

And the Gain ([4]; Test 2, control 7.5)?
Its Gain is 8.4 g/day.

What about the “Feed Intake” value ([4]; Test 2, control 19.3) of the same compound?
Its value is 20.7 g/day.

What about the Weight ([4]; Test 2, control 202.3) of the same compound?
Its Weight is 214.7 g.

What about the “Carcass Composition % of Change over Control, Fat” value ([4]; Test 2) of the same compound?
The value was -16.1%.

And the “Carcass Composition % of Change over Control, Protein” value ([4]; Test 2)?
The value was 5.0%.

What about the “activity in all species” value [6] of the same compound?
The value was “high activity in all species under consideration”.

For `COc1ccc(CC(C)NCC(O)c2ccc(O)c(NC=O)c2)cc1` (stereo not shown) [IX, Formoterol], which activation at 0.01 µM [2, 10] is on record?
Its activation at 0.01 µM is 207%.

And the activation at 0.05 µM [2, 10]?
Its activation at 0.05 µM is 267%.

And the activation at 0.25 µM [2, 10]?
Its activation at 0.25 µM is 187%.

And the activation at 0.01 µM [2, 11]?
The activation at 0.01 µM was 340%.

What about the activation at 0.05 µM [2, 11] of the same compound?
Its activation at 0.05 µM is 600%.

And the activation at 0.25 µM [2, 11]?
Its activation at 0.25 µM is 844%.

What about the activation at 0.01 µM ([3]; read-out: percent increase compared to control, glycerol production, Test 1, 0.01 μM) of the same compound?
Its activation at 0.01 µM is 675%.

And the activation at 0.05 µM [3, 10]?
The activation at 0.05 µM was 695%.

What about the activation at 0.01 µM (Rat Adipose Tissue; [10]) of the same compound?
The activation at 0.01 µM was 42%.

What about the activation at 0.05 µM (Rat Adipose Tissue; [10]) of the same compound?
Its activation at 0.05 µM is 91%.

What about the activation at 0.25 µM (Rat Adipose Tissue; [10]) of the same compound?
Its activation at 0.25 µM is 258%.

What about the activation at 0.01 µM (Rat Adipose Tissue; [11]) of the same compound?
Its activation at 0.01 µM is 16%.

What about the activation at 0.05 µM (Rat Adipose Tissue; [11]) of the same compound?
The activation at 0.05 µM was 70%.

What about the activation at 0.25 µM (Rat Adipose Tissue; [11]) of the same compound?
The activation at 0.25 µM was 145%.

And the Gain ([4]; Test 1, control 7.3)?
Its Gain is 7.9 g/day.

And the “Feed Intake” value ([4]; Test 1, control 18.6)?
The value was 19.1 g/day.

And the Weight ([4]; Test 1, control 191.8)?
The Weight was 199.4 g.

What about the “Carcass Composition % of Change over Control, Fat” value ([4]; Test 1) of the same compound?
Its value is -10.4%.

And the “Carcass Composition % of Change over Control, Protein” value ([4]; Test 1)?
Its value is 10.6%.

What about the “activity in all species” value [6] of the same compound?
Its value is “high activity in all species under consideration”.
